We go through two molecules from patent publication US20250002450A1, “CATIONIC STEROID COMPOUNDS, METHOD OF OBTAINING THEREOF, FORMULATIONS COMPRISING THEREOF AND THEIR USES” (UNIVERSIDADE DO PORTO, priority 2021, published 2025).

In brackets after ≈: the same amount, converted by molar mass. Like-named read-outs stand apart in the source and are kept apart here.

One test deals with C. krusei ATCC 6258. As to the kind of experiment: Antifungal MIC/MLC (broth microdilution). It counts as cell-based, Candida krusei. As to the method:
The antifungal activity of compound 1 was evaluated for a wide range of fungal species, covering yeasts and filamentous fungi, including dermatophytes. […] This antimicrobial effect was fungicidal, with minimal lethal concentrations (MLC) being equal to, or one or two-fold higher than the respective MIC. Twenty-three fungal strains were used in this study, including reference strains and clinical isolates of yeasts and filamentous fungi. Yeast strains included reference strains (ATCC—American Type Culture Collection and CECT—Colección Española de Cultivos Tipo) and clinical isolates: C. albicans ATCC 10231, Candida krusei ATCC 6258, C. albicans H37, C. albicans FF172, C. albicans FF176, C. albicans DSY294, C. albicans DSY296, C. glabrata DSY562, C. glabrata DSY565 and Cryptococcus neoformans CECT 1078. Filamentous fungi included Aspergillus fumigatus ATCC 240305, A. fumigatus C111, A. niger ATCC 16404, A. flavus F44, Fusarium solani FF125, F. oxysporum FF115, and dermatophytes Trichophyton rubrum FF5, T. mentagrophytes FF7, Microscoporum canis FF1 and Nannizzia gypsea FF3 (formerly Microsporum gypseum) and a species of genera Mucor, Lichetheimia and Scedosporium. Saprolegnia parasitica CBS 223.65, a reference strain of an oomycete fish pathogen, was also included. All microorganisms were kept in Sabouraud Dextrose Broth (SDB: BioMérieux, Marcy L'Etoile, France) plus glycerol (20%) at −80° C. The strains were kept in Sabouraud Dextrose Agar (SDA: BioMérieux, Marcy L'Etoile, France) slants and were sub-cultured in SDA before each test. S. parasitica was kept in Corn Meal Agar plates (CMA: BBL™ Corn Meal Agar, BD, Le Pont-de-Claix, France) and was sub-cultured in CMA before each experiment. C. albicans H37, was kindly provided by Cidilia Pina Vaz (CHSJ, Porto, Portugal) and C. albicans DSY294, C. albicans DSY296, C. glabrata DSY562, C. glabrata DSY565 were kindly provided by D. Sanglard (University of Lausanne, Switzerland). A stock solution of compound 1 (10 mg/mL), was prepared in dimethyl sulfoxide (DMSO 99%: Alfa Aesar, Kandel, Germany), kept at −20 degrees C., and freshly diluted in the appropriate culture media before each assay. In all experiments, in-test concentrations of DMSO were kept below 2%. Fluconazole (Alfa Aesar, Ward Hill, MA, USA) was tested as commercial antifungal.
Antifungal activity was evaluated by determining the MIC of compound 1 by the broth microdilution method, according to CLSI guidelines (reference documents M27-A3 for yeasts and M38-A2 for filamentous fungi). […] The minimal lethal concentration (MLC) was determined by spreading 20 μL of culture collected from wells showing no visible growth on SDA plates. The MLC was determined as the lowest concentration showing complete growth inhibition after 48 h at 35 degrees C., 48 h at 25 degrees C. […]
In general terms: Broth dilution looks for growth in wells or tubes with falling amounts of substance.

The test system of another test is C. albicans ATCC 10231. In words: Mitochondrial dehydrogenases activity, MTT reduction assay. The format is cell-based, Candida albicans. The note with it: 2 h. The protocol: In order to determine whether compound 1 could also affect mitochondrial function, MTT reduction assay was performed. In this assay, tetrazolium salts are reduced to purple formazan derivatives by mitochondrial dehydrogenases, which can be measured spectrophotometrically and reported to mitochondrial activity and, indirectly, to cell viability. In this assay, cells were exposed to the test compounds for 2 h ([FIG. 11]). […] An increase in reactive oxygen species (ROS) has been linked to azoles activity: even though their primary mode of action is the inhibition of ergosterol synthesis, they also induce accumulation of ROS, which enhances their antifungal activity and translates into an increase in mitochondrial activity at inhibitory concentrations. […] Mitochondrial dehydrogenase activity was evaluated by the MTT assay, as previously described, with some modifications. Cell suspensions of C. albicans ATCC 10231 were prepared in the same manner as described above and, after overnight incubation at 36° C., were centrifuged at 3500 rpm for 15 min, the supernatant was removed, and the cells were carefully resuspended in 2 mL of RPMI. Test conditions and controls were the same as described above, but the time of exposure to the test compounds was 2 h. After the exposure time, cell suspensions were centrifuged at 3500 rpm for 10 min, the supernatant was removed, and 500 μL of MTT solution (0.5 mg/mL in RPMI, at 35° C.) (Thiazolyl Blue Tetrazolium Bromide, Alfa Aesar, Ward Hill, MA, USA) were added. After a 1 h incubation at 35° C., the insoluble formazan product resulting from the conversion of MTT by mitochondrial dehydrogenases of metabolically active cells was solubilized with 300 μL of DMSO. 100 μL of each sample were transferred in duplicate to a microtiter plate and the extent of the reduction of MTT to formazan was quantified by measuring the absorbance at 570 nm. Three independent assays were performed in duplicate, and the results are expressed as percentage of MTT reduction, using the untreated cells as control.
A general note: Tetrazolium dyes change colour on reduction, which living cells bring about.

The mark [1] stands for this setting: C. krusei ATCC 6258, intrinsically resistant to fluconazole.

Usually MIC stands for the lowest concentration that inhibits growth of the organism. On to `OC(Cn1cncn1)(Cn1cncn1)c1ccc(F)cc1F` [Fluconazole, reference compound], for which, in the test with C. krusei ATCC 6258 (setting [1]), the MLC was >128 µg/mL. In addition, in the test on C. krusei ATCC 6258 (Pichia kudriavzevii, ATCC6258, read-out: MIC), the MIC came to 32 µg/mL (≈ 104 µM). Moreover, the “mitochondrial activity (MTT reduction) vs untreated control” value in the test with C. albicans ATCC 10231 (8 μg/mL) is reported as “increase (non-significant)”.
Consider `C[C@H](CCC(=O)NCCN)[C@H]1CC[C@H]2[C@@H]3CC[C@@H]4C[C@H](O)CC[C@]4(C)[C@H]3C[C@H](O)[C@]12C` [Compound 1, (R)—N-(2-aminoethyl)-4-((3R,5R,8R,9S,10S,12S,13R,14S,17R)-3,12-dihydroxy-10,13-dimethylhexadecahydro-1H-cyclopenta[a]phenanthren-17-yl) pentanamida], for which, in the test on C. krusei ATCC 6258 (setting [1]), the minimal inhibitory concentration (MIC) was found to be 64 µg/mL (≈ 147 µM) and the MLC amounted to 64 µg/mL (≈ 147 µM). Further, the “mitochondrial activity (MTT reduction) vs untreated control” value with C. albicans ATCC 10231 (128, 64, and 32 μg/mL (2×MIC, MIC, ½×MIC)) was “significant reduction of mitochondrial activity”.
